Results on 39 compounds are retold here after patent US10266549B2, “ULK1 inhibitors and methods using same” (SALK INSTITUTE FOR BIOLOGICAL STUDIES, priority 2014, dated 2019).

Molecules are shown by their SMILES.

The target in the assay is ULK1 (Homo sapiens (Human), UniProt O75385). Nature of the assay: ULK1 inhibition assay (Table 1). In kind it is biochemical. As to conditions: * = tested as a mixture of regioisomers.
Chain of ULK1 (O75385 whole entry, species assumed): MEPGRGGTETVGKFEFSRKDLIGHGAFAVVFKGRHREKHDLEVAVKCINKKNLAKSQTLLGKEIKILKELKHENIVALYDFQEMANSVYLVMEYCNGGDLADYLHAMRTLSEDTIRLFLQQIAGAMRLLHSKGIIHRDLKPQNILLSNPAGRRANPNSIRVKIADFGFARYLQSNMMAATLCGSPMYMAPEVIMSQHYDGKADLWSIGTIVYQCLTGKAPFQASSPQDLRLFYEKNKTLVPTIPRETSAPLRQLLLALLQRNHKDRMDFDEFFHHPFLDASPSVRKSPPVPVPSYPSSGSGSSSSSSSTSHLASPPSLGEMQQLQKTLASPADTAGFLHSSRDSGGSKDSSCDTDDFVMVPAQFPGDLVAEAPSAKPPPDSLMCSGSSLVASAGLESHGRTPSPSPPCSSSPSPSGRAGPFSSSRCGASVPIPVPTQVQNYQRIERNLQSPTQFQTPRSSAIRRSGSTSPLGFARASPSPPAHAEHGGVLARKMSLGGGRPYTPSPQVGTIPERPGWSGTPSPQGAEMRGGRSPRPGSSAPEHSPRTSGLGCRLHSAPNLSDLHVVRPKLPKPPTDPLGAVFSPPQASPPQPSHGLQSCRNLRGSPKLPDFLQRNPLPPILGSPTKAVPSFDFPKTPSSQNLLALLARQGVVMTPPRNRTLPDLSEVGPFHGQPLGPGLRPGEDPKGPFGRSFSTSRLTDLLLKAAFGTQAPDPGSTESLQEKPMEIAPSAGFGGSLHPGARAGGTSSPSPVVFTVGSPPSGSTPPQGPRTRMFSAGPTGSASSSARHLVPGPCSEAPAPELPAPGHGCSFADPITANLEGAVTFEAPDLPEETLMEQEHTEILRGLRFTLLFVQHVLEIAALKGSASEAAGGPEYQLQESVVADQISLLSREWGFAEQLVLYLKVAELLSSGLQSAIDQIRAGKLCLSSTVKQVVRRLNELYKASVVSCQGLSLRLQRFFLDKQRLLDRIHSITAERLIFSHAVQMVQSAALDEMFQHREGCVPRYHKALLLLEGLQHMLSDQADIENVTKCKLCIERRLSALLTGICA

As to `FC(F)(F)c1cnc(NC2Cc3ccccc3C2)nc1Nc1ccc2c(c1)OCO2` [163a, N^4-(benzo[d][1,3]dioxol-5-yl)-N^2-(2,3-dihydro-1H-inden-2-yl)-5-(trifluoromethyl)pyrimidine-2,4-diamine], the IC50 is greater than 2000 nM. Turning to `CNc1nc(Nc2cnc3[nH]ccc3c2)ncc1C(F)(F)F` [182a, N4-methyl-N2-(1H-pyrrolo[2,3-b]pyridin-5-yl)-5-(trifluoromethyl)pyrimidine-2,4-diamine], the IC50 was less than 200 nM. For `COc1ccc(C)c(Nc2ncc(Cl)c(Nc3ccc(OC)nc3)n2)c1` [compound 34, 5-Chloro-N^2-(5-methoxy-2-methylphenyl)-N^4-(6-methoxypyridin-3-yl)pyrimidine-2,4-diamine], the IC50 is greater than 2000 nM.

Regarding `FC(F)(F)c1cnc(NC2CC2)nc1NC1CC1` [compound 169, N^2,N^4-dicyclopropyl-5-(trifluoromethyl)pyrimidine-2,4-diamine], the IC50 was greater than 2000 nM.

On to `CNC(=O)c1ccccc1Oc1nc(Nc2ccc(C)c(Br)c2)ncc1C(F)(F)F` [compound 102, 2-((2-((3-bromo-4-methylphenyl)amino)-5-(trifluoromethyl)pyrimidin-4-yl)oxy)-N-methylbenzamide], for which the IC50 was greater than 2000 nM. `O=C1CCc2cc(Nc3nc(NC4CCC4)ncc3C(F)(F)F)ccc2N1` [150b, 6-((2-(cyclobutylamino)-5-(trifluoromethyl)pyrimidin-4-yl)amino)-3,4-dihydroquinolin-2(1H)-one]: the IC50 is less than 200 nM.

`CNC(=O)c1cccc(Nc2nc(Nc3ccc4c(c3)CCC(=O)N4)ncc2C(F)(F)F)c1` [compound 128, N-methyl-3-((2-((2-oxo-1,2,3,4-tetrahydroquinolin-6-yl)amino)-5-(trifluoromethyl)pyrimidin-4-yl)amino)benzamide]: the IC50 is less than 200 nM. Consider `COc1cccc(Nc2nc(Nc3ccc4c(c3)CCC(=O)N4)ncc2Br)c1` [compound 142, 6-((5-bromo-4-((3-methoxyphenyl)amino)pyrimidin-2-yl)amino)-3,4-dihydroquinolin-2(1H)-one], for which the IC50 is less than 200 nM.

As to `CNC(=O)c1ccccc1Oc1nc(Nc2cc(Br)ccc2C)ncc1Br` [compound 112, 2-((5-bromo-2-((5-bromo-2-methylphenyl)amino)pyrimidin-4-yl)oxy)-N-methylbenzamide], the IC50 was greater than 2000 nM.

Take `CNC(=O)c1ccccc1Oc1nc(Nc2ccccc2SC)ncc1C(F)(F)F` [116a, N-methyl-2-((2-((2-(methylthio)phenyl)amino)-5-(trifluoromethyl)pyrimidin-4-yl)oxy)benzamide]: the IC50 is greater than 2000 nM. As for `CNC(=O)c1ccccc1Nc1nc(Nc2ccc3c(c2)CCC(=O)N3)ncc1C(F)(F)F` [compound 76, N-Methyl-2-(2-(2-oxo-1,2,3,4-tetrahydroquinolin-6-ylamino)-5-(trifluoromethyl)pyrimidin-4-ylamino)benzamide], the half-inhibitory concentration (IC50) was less than 200 nM. In the case of `CNC(=O)c1ccccc1Oc1nc(Nc2cccc(F)c2F)ncc1C(F)(F)F` [compound 113, 2-((2-((2,3-difluorophenyl)amino)-5-(trifluoromethyl)pyrimidin-4-yl)oxy)-N-methylbenzamide] it was greater than 2000 nM.

`Cc1cccc(Oc2nc(Nc3ccc4c(c3)CCC(=O)N4)ncc2C(F)(F)F)c1C` [compound 83, 6-((4-(2,3-Dimethylphenoxy)-5-(trifluoromethyl)pyrimidin-2-yl)amino)-3,4-dihydroquinolin-2(1H)-one]: the IC50 is less than 200 nM.

For `O=C1CCc2cc(Nc3ncc(C(F)(F)F)c(Nc4cccc5ccccc45)n3)ccc2N1` [126a, 6-((4-(naphthalen-1-ylamino)-5-(trifluoromethyl)pyrimidin-2-yl)amino)-3,4-dihydroquinolin-2(1H)-one], the IC50 fell in the range of 200 to 2000 nM. Consider `FC(F)(F)c1cnc(Nc2ccc3c(c2)OCO3)nc1NC1CCC1` [168b, N^2-(benzo[d][1,3]dioxol-5-yl)-N^4-cyclobutyl-5-(trifluoromethyl)pyrimidine-2,4-diamine], for which the IC50 was in the range of 200 to 2000 nM. The figure for `COc1cccc(Nc2ncc(C(F)(F)F)c(O)n2)c1OC` [115b, 2-((2,3-dimethoxyphenyl)amino)-5-(trifluoromethyl)pyrimidin-4-ol] is greater than 2000 nM; for `CNC(=O)c1ccccc1Oc1nc(Nc2ccccc2)ncc1C(F)(F)F` [compound 99, N-methyl-2-((2-(phenylamino)-5-(trifluoromethyl)pyrimidin-4-yl)oxy)benzamide] it is greater than 2000 nM; for `Cc1cnc(Nc2ccc3c(c2)CCC(=O)N3)nc1NCc1cccc(S(C)(=O)=O)c1` [compound 67, 6-((5-Methyl-4-((3-(methylsulfonyl)benzyl)amino)pyrimidin-2-yl)amino)-3,4-dihydroquinolin-2(1H)-one] it is greater than 2000 nM.

For the compound `CNC(=O)c1ccccc1Nc1nc(Nc2cc(OC)c(OC)c(OC)c2)ncc1/C=C/c1ccccc1` [compound 71, (E)-N-Methyl-2-((5-styryl-2-((3,4,5-trimethoxyphenyl)amino)pyrimidin-4-yl)amino)benzamide], the IC50 is less than 200 nM. Regarding `CS(=O)(=O)c1cccc(CNc2nc(Nc3ccc4c(c3)CC(=O)N4)ncc2C(F)(F)F)c1` [compound 33, 5-((4-((3-(Methylsulfonyl)benzyl)amino)-5-(trifluoromethyl)pyrimidin-2-yl)amino)indolin-2-one], the IC50 fell in the range of 200 to 2000 nM.

Take `COc1cccc(Nc2nc(Nc3ccc4c(c3)CCC(=O)N4)ncc2Cl)c1` [143a, 6-((5-chloro-4-((3-methoxyphenyl)amino)pyrimidin-2-yl)amino)-3,4-dihydroquinolin-2(1H)-one]: the IC50 is less than 200 nM.

For `O=C1CCc2cc(Nc3ncc(C(F)(F)F)c(OCc4ccccc4)n3)ccc2N1` [compound 81, 6-(4-(Benzyloxy)-5-(trifluoromethyl)pyrimidin-2-ylamino)-3,4-dihydroquinolin-2(1H)-one], the IC50 is less than 200 nM.

Take `FC(F)(F)c1cnc(N2CCCC2)nc1Nc1ccc2c(c1)OCO2` [164a, N-(benzo[d][1,3]dioxol-5-yl)-2-(pyrrolidin-1-yl)-5-(trifluoromethyl)pyrimidin-4-amine]: the IC50 is greater than 2000 nM. The figure for `FC(F)(F)c1cnc(Nc2cnc3[nH]ccc3c2)nc1Nc1ccccc1` [181a, N4-phenyl-N2-(1H-pyrrolo[2,3-b]pyridin-5-yl)-5-(trifluoromethyl)pyrimidine-2,4-diamine] is less than 200 nM. In the case of `CNC(=O)c1cccc(Oc2nc(Nc3ccc4c(c3)CCC(=O)N4)ncc2C(F)(F)F)c1` [compound 122, N-methyl-3-((2-((2-oxo-1,2,3,4-tetrahydroquinolin-6-yl)amino)-5-(trifluoromethyl)pyrimidin-4-yl)oxy)benzamide] it was 200 to 2000 nM; in that of `O=C1CCc2cc(Nc3ncc(C(F)(F)F)c(CCc4ccccc4)n3)ccc2N1` [compound 66, 6-((4-Phenethyl-5-(trifluoromethyl)pyrimidin-2-yl)amino)-3,4-dihydroquinolin-2(1H)-one], 200 to 2000 nM; in that of `Fc1c(Nc2nc(Nc3ccc4c(c3)OCO4)ncc2C(F)(F)F)cccc1C(F)(F)F` [141b, N^2-(benzo[d][1,3]dioxol-5-yl)-N^4-(2-fluoro-3-(trifluoromethyl)phenyl)-5-(trifluoromethyl)pyrimidine-2,4-diamine], less than 200 nM. The figure for `FC(F)Oc1ccccc1Nc1ncc(C(F)(F)F)c(Nc2ccccc2OC(F)F)n1` [120b, N^2,N^4-bis(2-(difluoromethoxy)phenyl)-5-(trifluoromethyl)pyrimidine-2,4-diamine] is 200 to 2000 nM; for `O=C1CCc2cc(Nc3ncc(C(F)(F)F)c(Nc4ccccc4OC(F)F)n3)ccc2N1` [120a, 6-((4-((2-(difluoromethoxy)phenyl)amino)-5-(trifluoromethyl)pyrimidin-2-yl)amino)-3,4-dihydroquinolin-2(1H)-one] it is less than 200 nM. Turning to `CNC(=O)c1ccccc1Nc1nc(Nc2cc(OC)c(OC)c(OC)c2)ncc1-c1ccccc1` [compound 73, N-Methyl-2-(5-phenyl-2-(3,4,5-trimethoxyphenylamino)pyrimidin-4-ylamino)benzamide], the IC50 was less than 200 nM. In the case of `COCCNc1ncc(C(F)(F)F)c(Nc2ccc3c(c2)CCC(=O)N3)n1` [151b, 6-((2-((2-methoxyethyl)amino)-5-(trifluoromethyl)pyrimidin-4-yl)amino)-3,4-dihydroquinolin-2(1H)-one] it was less than 200 nM; in that of `CNC(=O)c1ccccc1Oc1nc(Nc2ccc3c(c2)CCC(=O)N3)ncc1C(F)(F)F` [compound 110, N-methyl-2-((2-((2-oxo-1,2,3,4-tetrahydroquinolin-6-yl)amino)-5-(trifluoromethyl)pyrimidin-4-yl)oxy)benzamide], 200 to 2000 nM. The figure for `COc1cc(Nc2nc(-n3nnc4ccccc43)ncc2Br)cc(O)c1OC` [Example 331b] is 200 to 2000 nM; for `COc1cc(N2CCOCC2)ccc1Nc1ncc(C(F)(F)F)c(NCc2cccc(S(C)(=O)=O)c2)n1` [compound 52, N^2-(2-Methoxy-4-morpholinophenyl)-N^4-(3-(methylsulfonyl)benzyl)-5-(trifluoromethyl)pyrimidine-2,4-diamine] it is greater than 2000 nM; for `O=C1CCc2cc(Nc3ncc(Cl)c(Nc4ccc5c(c4)CCC(=O)N5)n3)ccc2N1` [compound 134, 6,6′-((5-chloropyrimidine-2,4-diyl)bis(azanediyl))bis(3,4-dihydroquinolin-2(1H)-one)] it is less than 200 nM. In the case of `CSc1ccccc1Nc1ncc(C(F)(F)F)c(Nc2ccccc2SC)n1` [116b, N^2,N^4-bis(2-(methylthio)phenyl)-5-(trifluoromethyl)pyrimidine-2,4-diamine] it was greater than 2000 nM. As to `COc1cccc(Nc2ncc(Cl)c(Nc3cccc(OC)c3)n2)c1` [143b, 5-chloro-N^2,N^4-bis(3-methoxyphenyl) pyrimidine-2,4-diamine], the IC50 is less than 200 nM.

Consider `COc1ccc(C)c(Nc2ncc(Cl)c(Nc3cccc(CC#N)c3)n2)c1` [compound 54, 2-(3-(5-Chloro-2-(5-methoxy-2-methylphenylamino)pyrimidin-4-ylamino)phenyl)acetonitrile], for which the IC50 is greater than 2000 nM.

Take `CNC(=O)c1ccccc1Nc1nc(Nc2ccc3c(c2)CC(=O)N3)ncc1Cl` [compound 21, 2-(5-Chloro-2-(2-oxoindolin-5-ylamino)pyrimidin-4-ylamino)-N-methylbenzamide]: the half-inhibitory concentration (IC50) is less than 200 nM.

The term IC50 denotes the concentration that gives 50% inhibition.
